Key:
[1] = biological target: T1, interaction between IL-17RB and MLK4 (Homo sapiens, UniProt Q5TCX8); assay: Co-immunoprecipitation of IL-17RB and MLK4 after peptide pretreatment and rIL-17B; type: cell-based; settings: 293T cells expressing Flag-MLK4 and HA-IL-17RB; peptides 0, 0.1, 1, 10, 50, 100 ng/ml for 30 mins, then rIL-17B 30 mins
T1 construct: host or cells: 293T (HEK293T)
Description: FIGS. 7A to 7J include charts showing that disruption of the interaction between IL-17RB and MLK4 by the loop peptide blocks oncogenic progression. (FIG. 7A) Peptides TAT48-57 (Control) (SEQ ID NO: 21) and TAT-IL-17RB403-416 (Loop) (SEQ ID NO: 30) used for the following experiments. (FIG. 7B) Immunoblotting analysis of IL-17RB binding to MLK4 with Loop peptide treatment. 293T cells expressing Flag-MLK4 and HA-IL-17RB were pretreated with the control and loop peptides with different dose (0, 0.1, 1, 10, 50, 100 ng/ml) for 30 mins, and then added rIL-17B for 30 mins. The cell lysates were reciprocally co-immunoprecipitated with anti-Flag and anti-HA and blotted with the indicated antibodies or directly immunoblotted with the indicated antibodies as the input controls. […] CCL20 and TFF/mRNA expression of these cells were measured by RT-qPCR (n=3) (FIG. 7D), the same cells were for invasion assay (n=4) (FIG. 7E) and SACF assay (n=4) (FIG. 7F). […] (FIG. 7I) The experimental EKP mice (n=7 for each group) were euthanized at Day 56, and the metastatic tumor nodules in the lungs were counted. […]
Whole-cell lysates were prepared as previously described (6, 7). […] After extensive washing with diluted lysis buffer (0.01% Triton X-100), IL-17RB and its associated proteins were analyzed by immunoblotting analysis. […]

[2] = system: transgenic pancreatic cancer EKP mice; assay: Spontaneous pancreatic cancer model, EKP mice plus cerulein; type: in vivo, mouse; settings: for recruitment of MDSC and M2 macrophage: pancreatic tissues, flow cytometry
Description: FIGS. 7A to 7J include charts showing that disruption of the interaction between IL-17RB and MLK4 by the loop peptide blocks oncogenic progression. (FIG. 7A) Peptides TAT48-57 (Control) (SEQ ID NO: 21) and TAT-IL-17RB403-416 (Loop) (SEQ ID NO: 30) used for the following experiments. (FIG. 7B) Immunoblotting analysis of IL-17RB binding to MLK4 with Loop peptide treatment. 293T cells expressing Flag-MLK4 and HA-IL-17RB were pretreated with the control and loop peptides with different dose (0, 0.1, 1, 10, 50, 100 ng/ml) for 30 mins, and then added rIL-17B for 30 mins. The cell lysates were reciprocally co-immunoprecipitated with anti-Flag and anti-HA and blotted with the indicated antibodies or directly immunoblotted with the indicated antibodies as the input controls. (FIG. 7C to FIG. 7F) CFPAC1cells were pretreated with the peptides for 30 mins and then added rIL-17B for 30 mins. The cell lysates were immunoblotted with the indicated antibodies or immunoprecipitated with anti-IL-17RB or control IgG and blotted with the indicated antibodies (FIG. 7C). CFPAC1 cells were pretreated with TAT48-57 or TAT-IL-17RB403-416 (50 ng/ml) 30 mins and then added rIL-17B for two hrs. CCL20 and TFF/mRNA expression of these cells were measured by RT-qPCR (n=3) (FIG. 7D), the same cells were for invasion assay (n=4) (FIG. 7E) and SACF assay (n=4) (FIG. 7F). (FIG. 7G) The scheme of the treatment of transgenic pancreatic cancer EKP mice (LSL-Kras^+/G12D; p53^+/−; Ela-Cre^ERT; plus cerulein) with the Loop peptides. (FIG. 7H) IHC images of pancreases stained with anti-P-Y447 antibody. Scale bars: 50 μm. The pancreas tissues were from EKP mice after treated with the control or loop peptides at Day 42. The Kras^+/+ mice (Kras^+/+; p53^+/−; Ela-Cre^ERT; plus cerulein) were used as the non-cancerous control. Boxes indicate the enlarged areas. (FIG. 7I) The experimental EKP mice (n=7 for each group) were euthanized at Day 56, and the metastatic tumor nodules in the lungs were counted. (FIG. 7J) Kaplan-Meier survival curve plot of the lifespans of the experimental EKP mice (n=7 for each group). Log-rank test was used.
FIGS. 20A to 20D include charts showing that treatment of TAT-IL-17RB403-416 peptide reduces the recruitment of MDSC and M2 macrophage. (FIG. 20A) Pancreatic tissues of EKP mice (LSL-Kras+/G12D; p53+/−; Ela-Cre^ERT; plus cerulein) (n=7 for each group) treated with TAT-IL-17RB403-416 (Loop) peptides were examined the tumor-immune modulating capacity by flow cytometry with specific cell surface markers as indicated. […] Data are mean±s.d. *P<0.05, **P<0.01 by two-tailed Student's t-test.
Formalin-fixed paraffin-embedded primary tumor tissue sections were used for IHC. Heat-induced antigen retrieval was performed using 0.1M citrate buffer, pH 6.0 and autoclaved for 20 mins. Endogenous peroxidase was eliminated with 3% H2O2. Slides were stained with an in-house-generated anti-IL-17RB antibody (A81, 1:2000) and anti-P-Y447 (1:500), respectively in PBS/10% FBS overnight at 4° C. After washing, slides were incubated with anti-rabbit/mouse HRP polymer before visualization with liquid diaminobenzidine tetrahydrochloride plus substrate DAB chromogen from Dako REAL EnVision (Carpinteria, CA). All slides were counterstained with hematoxylin.
Tumors were excised, weighed and measured. Approximately half of each dissected tumor was fixed in formalin for histopathologic analysis. The remaining tumor sections were placed in PBS with 1% (v/v) FBS and mechanically minced. […]

T1 sequence (Q5TCX8 whole entry): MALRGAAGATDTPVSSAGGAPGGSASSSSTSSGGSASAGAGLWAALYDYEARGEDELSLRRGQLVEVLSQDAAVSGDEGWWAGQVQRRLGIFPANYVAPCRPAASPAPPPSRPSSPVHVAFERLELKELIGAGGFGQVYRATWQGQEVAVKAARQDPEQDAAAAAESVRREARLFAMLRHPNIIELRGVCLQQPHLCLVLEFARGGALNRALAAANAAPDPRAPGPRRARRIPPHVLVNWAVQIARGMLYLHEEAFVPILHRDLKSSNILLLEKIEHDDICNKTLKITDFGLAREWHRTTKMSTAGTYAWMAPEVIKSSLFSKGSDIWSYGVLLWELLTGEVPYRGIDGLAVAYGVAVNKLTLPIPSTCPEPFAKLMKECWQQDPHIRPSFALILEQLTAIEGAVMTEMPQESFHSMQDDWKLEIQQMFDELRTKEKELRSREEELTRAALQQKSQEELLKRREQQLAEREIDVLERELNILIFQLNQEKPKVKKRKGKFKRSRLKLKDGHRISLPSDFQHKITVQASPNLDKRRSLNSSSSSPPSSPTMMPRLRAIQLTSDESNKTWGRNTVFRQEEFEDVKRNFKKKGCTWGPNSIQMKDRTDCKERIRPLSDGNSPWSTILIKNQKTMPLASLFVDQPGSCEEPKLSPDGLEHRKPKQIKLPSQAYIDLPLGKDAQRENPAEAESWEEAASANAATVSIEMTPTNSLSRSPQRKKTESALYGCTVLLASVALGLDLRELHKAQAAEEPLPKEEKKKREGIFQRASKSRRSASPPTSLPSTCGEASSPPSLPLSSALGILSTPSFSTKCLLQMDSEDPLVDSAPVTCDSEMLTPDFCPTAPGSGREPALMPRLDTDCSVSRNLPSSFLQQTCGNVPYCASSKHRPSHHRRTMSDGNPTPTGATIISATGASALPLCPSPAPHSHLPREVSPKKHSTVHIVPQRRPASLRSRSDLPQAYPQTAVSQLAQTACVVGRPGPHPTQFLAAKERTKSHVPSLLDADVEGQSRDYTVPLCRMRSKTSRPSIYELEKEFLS

## RKKRRQRRRVCDGTCGKSEGSPS (IL-17RB inhibitory peptide, fusion protein) [loop peptide]
[1]
  interaction between IL-17RB and MLK4 (co-IP): disrupted
[2]; EKP mice euthanized at day 56
  lung metastasis nodule formation: suppressed
[2]; EKP mice, Day 42
  expression of P-Y447 IL-17RB in pancreatic tissues (IHC): diminished
[2]; EKP mice
  recruitment of MDSC and M2 macrophage: reduced
[2]; EKP mice, listed as TAT-IL-17RB403-416
  recruitment of MDSC and M2 macrophage: reduces
[2]; EKP mice, second treatment protocol
  lifespan (Kaplan-Meier survival): significantly prolonged
